Assay results as given in patent US20060052597A1, “Aryloxyalkylamine derivatives as h3 receptor ligands” (priority 2002, published 2006).
Where a name gives a salt, the structure may show the parent alone.

These molecules were tested against T1, histamine H3 receptor (Homo sapiens, UniProt Q9Y5N1) (assay: Histamine H3 functional antagonist assay ([35S]GTPγS SPA on membranes)). Conditions: not given.
T1 construct: expressed in transfected cells; host or cells: CHO K1 cells carrying pSwitch, transfected with pGeneH3 and induced with mifepristone; clone 3H3; membrane preparation
T1 sequence (Q9Y5N1 whole entry): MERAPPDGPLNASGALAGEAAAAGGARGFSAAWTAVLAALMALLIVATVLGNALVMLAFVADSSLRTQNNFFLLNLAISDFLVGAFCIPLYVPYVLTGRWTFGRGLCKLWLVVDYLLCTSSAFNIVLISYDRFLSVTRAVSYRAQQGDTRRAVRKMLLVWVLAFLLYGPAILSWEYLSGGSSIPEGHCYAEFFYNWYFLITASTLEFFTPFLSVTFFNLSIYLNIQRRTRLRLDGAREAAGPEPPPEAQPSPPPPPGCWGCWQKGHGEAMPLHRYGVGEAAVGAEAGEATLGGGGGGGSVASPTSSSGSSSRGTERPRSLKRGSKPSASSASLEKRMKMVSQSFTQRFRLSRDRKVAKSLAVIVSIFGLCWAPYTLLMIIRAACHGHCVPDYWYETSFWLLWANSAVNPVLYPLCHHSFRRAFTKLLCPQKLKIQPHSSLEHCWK
Type: biochemical
Experimental: A membrane preparation containing histamine H3 receptors may be prepared in accordance with the following procedures:
Ligated DNA was transformed into competent DH5α E. coli host bacterial cells and plated onto Luria Broth (LB) agar containing Zeocin™ (an antibiotic which allows the selection of cells expressing the sh ble gene which is present on pGene and pSwitch) at 50 μg ml^−1. Colonies containing the religated plasmid were identified by restriction analysis. DNA for transfection into mammalian cells was prepared from 250 ml cultures of the host bacterium containing the pGeneH3 plasmid and isolated using a DNA preparation kit (Qiagen Midi-Prep) as per manufacturers guidelines (Qiagen).
CHO K1 cells previously transfected with the pSwitch regulatory plasmid (InVitrogen) were seeded at 2×10e6 cells per T75 flask in Complete Medium, containing Hams F12 (GIBCOBRL, Life Technologies) medium supplemented with 10% v/v dialysed foetal bovine serum, L-glutamine, and hygromycin (100 μg ml^−1), 24 hours prior to use. Plasmid DNA was transfected into the cells using Lipofectamine plus according to the manufacturers guidelines (InVitrogen). 48 hours post transfection cells were placed into complete medium supplemented with 500 μg ml^−1 Zeocin™.
10-14 days post selection 10 nM Mifepristone (InVitrogen), was added to the culture medium to induce the expression of the receptor.
Approximately 1×10e7 cells were examined for receptor expression by staining with a rabbit polyclonal antibody, 4a, raised against the N-terminal domain of the histamine H3 receptor, incubated on ice for 60 minutes, followed by two washes in sorting medium.
Following two further washes with Sorting Medium, cells were filtered through a 50 μm Filcon™ (BD Biosciences) and then analysed on a FACS Vantage SE Flow Cytometer fitted with an Automatic Cell Deposition Unit. […] Positively stained cells were sorted as single cells into 96-well plates, containing Complete Medium containing 500 μg ml^−1 Zeocin™ and allowed to expand before reanalysis for receptor expression via antibody and ligand binding studies.
All steps of the protocol are carried out at 4° C. and with pre-cooled reagents. The cell pellet is resuspended in 10 volumes of buffer A2 containing 50 mM N-2-hydroxyethylpiperazine-N′-2-ethanesulfonic acid (HEPES) (pH 7.40) supplemented with […] leupeptin (acetyl-leucyl-leucyl-arginal; Sigma L2884), 25 μg/ml bacitracin (Sigma B0125), 1 mM ethylenediamine tetra-acetic acid (EDTA), 1 mM phenylmethylsulfonyl fluoride (PMSF) and 2×10e-6M pepstain A (Sigma). The cells are then homogenised by 2×15 second bursts in a 1 litre glass Waring blender, followed by centrifugation at 500 g for 20 minutes. The supernatant is then spun at 48,000 g for 30 minutes. The pellet is resuspended in 4 volumes of buffer A2 by vortexing for 5 seconds, followed by homogenisation in a Dounce homogeniser (10-15 strokes). At this point the preparation is aliquoted into polypropylene tubes and stored at −70° C. […]
The plate is then incubated on a shaker at room temperature for 30 minutes followed by centrifugation for 5 minutes at 1500 rpm. The plate is read between 3 and 6 hours after completion of centrifuge run in a Wallac Microbeta counter on a 1 minute normalised tritium count protocol. Data is analysed using a 4-parameter logistic equation. Basal activity used as minimum i.e. histamine not added to well.

**Q.** For `O=C(c1ccc(OCCCN2CCCCC2)cc1)N1CCN(C(=O)C2CCCCCC2)CC1` [Example E89, 1-[4-(3-Piperidin-1-ylpropoxy)benzoyl]-4-(cycloheptanecarbonyl)-piperazine Hydrochloride], which Kb is on record?
**A.** < 3.16 nM

Same assay, conditions: membranes of CHO K1 clone 3H3 expressing human histamine H3; histamine 0.3 μM; guanosine 5'[γ35-S]thiotriphosphate 0.38 nM; read-out: pKb (converted)

**Q.** How did the Kb turn out when `O=C(c1ccc(OCCCN2CCCCC2)cc1)N1CCN(c2ccccc2)CC1` [Example E1, N-[4-(3-Piperidin-1-ylpropoxy)benzoyl]-4-phenylpiperazine dihydrochloride] was run?
**A.** < 3.16 nM

**Q.** With `O=C(c1ccc(OCCCN2CCCCC2)cc1)N1CCN(C(=O)C2CCCCC2)CC1` [Example E57, 1-[4-(3-Piperidin-1-ylpropoxy)benzoyl]-4-(1-cyclohexanecarbonyl)-piperazine hydrochloride] as the molecule, how does the Kb read?
**A.** < 3.16 nM

**Q.** With `O=C(c1ccc(OCCCN2CCCCC2)cc1)N1CCN(C(=O)c2cccs2)CC1` [Example E59, 1-[4-(3-Piperidin-1-ylpropoxy)benzoyl]-4-(thiophen-2-carbonyl)-piperazine Hydrochloride] as the molecule, how does the Kb read?
**A.** < 3.16 nM

**Q.** With `O=C(c1ccc(OCCCN2CCCCC2)cc1)N1CCN(C(=O)N2CCCC2)CC1` [Example E88, 1-[4-(3-Piperidin-1-ylpropoxy)benzoyl]-4-(pyrrolidine-1-carbonyl)-piperazine Hydrochloride] as the molecule, how does the Kb read?
**A.** < 3.16 nM

**Q.** `C[C@@H]1CN(C(=O)c2ccc(OCCCN3CCCCC3)cc2)C[C@H](C)N1C(=O)c1ccccc1` [Example E100] was tested. Which Kb did it give?
**A.** < 3.16 nM

**Q.** Which Kb does the source give for `O=C(c1ccc(OCCCN2CCCCC2)cc1)N1CCCCC1` [Example E149, N-[4-(3-Piperidin-1-ylpropoxy)benzoyl]piperidine Hydrochloride] here?
**A.** < 3.16 nM

**Q.** `O=C(c1ccc(OCCCN2CCCCC2)cc1C(F)(F)F)N1CCCCC1` [Example E155, N-[2-Trifluoromethyl-4-(3-Piperidin-1-ylpropoxy)benzoyl]piperidine Hydrochloride] was tested. Which Kb did it give?
**A.** < 3.16 nM

**Q.** `O=C(N[C@H]1CCN(C(=O)c2ccc(OCCCN3CCCCC3)cc2)C1)c1ccccc1` [Example E156, (S)-N-[4-(3-Piperidin-1-ylpropoxy)benzoyl]-3-benzamidopyrrolidine Dihydrochloride] was tested. Which Kb did it give?
**A.** < 3.16 nM

**Q.** How did the Kb turn out when `O=C(N[C@H]1CCN(C(=O)c2ccc(OCCCN3CCCCC3)cc2)C1)c1cccc2ccccc12` [Example E158, (S)-N-[4-(3-Piperidin-1-ylpropoxy)benzoyl]-3-(naphthalene-1-carboxamidopyrrolidinedihydrochloride] was run?
**A.** < 3.16 nM

**Q.** `O=C(c1ccc(OCCCN2CCCCC2)cc1)N1CCC2(CC1)CN(c1ccccc1)C(=O)CO2` [Example E159, 4-Phenyl-9-[4-(3-piperidin-1-ylpropoxy)benzoyl]-1-oxa-4,9-diazaspiro-[5,5]-undecan-3-one hydrochloride] was tested. Which Kb did it give?
**A.** < 3.16 nM

**Q.** With `O=C1NC2(CCN(C(=O)c3ccc(OCCCN4CCCCC4)cc3)CC2)CN1Cc1ccccc1` [Example E160, 3-Benzyl-8-[4-(3-piperidin-1-ylpropoxy)benzoyl]-1,3,8-triaza-spiro[4.5]-decan-2-one] as the molecule, how does the Kb read?
**A.** < 3.16 nM
